According to patent US8440623B2, “Polymer stabilized neuropeptides” (Nektar Therapeutics, priority 1999, dated 2013):

Legend:
[1] = Enzymatic stability in brain tissue; format: in vitro ADME
Source text: (§1) The major contribution is that PEGylation improved brain and blood enzymatic stability dramatically. […] After PEGylation, those half-lives increased to hours for endomorphin II.

[2] = Enzymatic stability in blood plasma; format: in vitro ADME
Source text: as §1

male ICR mice = assay: Analgesia assay (radiant heat tail flick), mice; format: in vivo, mouse; settings: intravenous, FIG. 3
Procedure: Male ICR mice (20-25 g) or male Sprague-Dawley rats (250-300 g) (Harlan Sprague-Dawley Inc., Indianapolis, Ind.) were used for these experiments. Animals were housed four per cage in an animal care facility maintained at 22±0.5° C. with an alternating 12 hr light-dark cycle. Food and water were available ad libitum. Animals were used only once.
All drugs were dissolved in sterile saline and were prepared so that the proper dose would be delivered in 5 μl (i.c.v.), 100 μl (i.v.), 100 μl (s.c.) and 100 μl (i.m.) of the vehicle. All rodents were recorded for baseline latency before injection of the drug. A morphine control was used with the i.c.v. and i.v. injection procedures to compare the analgesic efficacies of test compounds. […]
The rodents were placed into restraint holders and their tails were properly placed under the radiant heat beam. The beam was turned on and the time until the animal flicked their tail from under the beam was recorded at each time point. […]
The raw data (recorded times) was converted to a percentage of the maximum possible effect (% M.P.E.) which was determined as 15 seconds. % M.P.E. was determined by the following equation: % M.P.E.=(Recorded time−Baseline)/(15−Baseline)×100
These percentages then allow the compound to be plotted according to % M.P.E. vs. Time. The curve can then be analyzed to determine the area under the curve (AUC).

rat brain = assay: In situ rat brain perfusion (brain uptake); settings: radiolabeled compound
Procedure: The protocol for the rat brain perfusion experiments was approved by the Institutional Animal Care and Use Committee at the University of Arizona. The in situ perfusion, capillary depletion, brain extract and protein binding studies were carried out as previously reported (Williams et al., J. Neurochem., 66 (3), pp 1289-1299, 1996).
The protocol for the rat brain perfusion experiments was approved by the Institutional Animal Care and Use Committee at the University of Arizona. The in situ perfusion studies were carried out as previously reported (Williams et al., J. Neurochem., 66 (3), pp 1289-1299, 1996).

Compound | half-life [1] [min] | half-life ([2]; blood plasma) [min] | half-lives in either brain or blood (in words) [2] | time mark at which 50% M.P.E. is seen (male ICR mice) [min] | in situ uptake RBr value (rat brain)
NC(=O)[C@H](Cc1ccccc1)NC(=O)[C@H](Cc1ccccc1)NC(=O)[C@@H]1CCCN1C(=O)[C@@H](N)Cc1ccc(O)cc1 [endomorphin II, H-Tyr-Pro-Phe-Phe-NH2] | 13 | 3.2 | on the order of minutes |  | 
C[C@@H](NC(=O)[C@@H](N)Cc1ccc(O)cc1)C(=O)NCC(=O)N[C@@H](Cc1ccccc1)C(=O)NNC(=O)[C@H](Cc1ccccc1)NC(=O)CNC(=O)[C@@H](C)NC(=O)[C@@H](N)Cc1ccc(O)cc1 [native biphalin, (H-Tyr-D-Ala-Gly-Phe-NH—)2] |  |  |  | 90 | 7.26±0.11
H-Tyr-Gly-Gly-Phe-Leu-Arg-Arg-Ile-Arg-Pro-Lys-NH2 (H-YGGFLRRIRPK-NH2) [dynorphin] |  |  | on the order of minutes |  | 
Tyr-D-Pen-Gly-Phe-D-Pen [I^125 DPDPE] |  |  |  |  | 3.54±0.30
